Test results as given in patent US8680150B2, “Small molecule hematopoietic growth factor mimetic compounds that activate hematopoietic growth factor receptors” (Ligand Pharmaceuticals, Inc., priority 2009, dated 2014).

The molecules below were run on UT7/EPO Cell line (assay: Cell proliferation assay in UT7/EPO cell line (ViaLight Plus)). Settings: compound at 10 uM; efficacy relative to EPO (100%); UT7/EPO cells expressing endogenous EPO receptor, starved of EPO overnight; 72 hours at 37° C.
Type: cell-based, human
Procedure: The primary testing for the exemplified compounds was performed in UT7/EPO Cell line. UT7/EPO is human leukemia cell line, obtained from Dr. Norio Komatsu (Blood, Vol 82 (2), pp 456-464, 1993). These cells express endogenous EPO receptor and are dependant upon EPO for growth and proliferation. Briefly, the cells were starved of EPO overnight and plated in 96 or 384 well plates. The compounds were added to the cells at 10 uM concentration. The plates were then incubated at 37° C. for 72 hours. The proliferative effect of the compounds was measured by a commercially available kit from Lonza (ViaLight Plus).

SMILES | Activity (%)
O=C(N/N=C/c1ccc2[nH]ccc2c1)c1ccc(-c2ccccc2)cc1 [Compound 163, 4-Phenylbenz(5-indolidene)hydrazide] | 23%
O=C(N/N=C/c1cccc(/C=N/OCc2ccccc2)c1)c1ccc(-n2ccnc2)cc1 [Compound 194, 4-(1-Imidazolyl)benz(3-benzyloxyiminomethylbenzylidene)hydrazide] | 5.2%
COc1cccc(/C=N/NC(=O)c2ccc(-c3ccccc3F)cc2)c1 [Compound 161, 4-(2-Fluorophenyl)phenylbenz(3-methoxybenzylidene)hydrazide] | 12%
O=C(N/N=C/c1cccc(/C=C/c2ccccc2Cl)c1)c1ccc(-n2ccnc2)cc1 [Compound 191, 4-(1-Imidazolyl)benz(2E-(2-chlorophenyl)ethenylbenzylidene)hydrazide] | 6.2%
COc1ccc(O)c(/C=N/NC(=O)c2cc3cc(OC)ccc3[nH]2)c1 [Compound 172, 5-Methoxyindole-2-carboxyl(2-hydroxy-5-methoxybenzylidene)hydrazide] | 9.8%
COc1cccc(/C=N/NC(=O)c2ccc(-c3cnco3)cc2)c1 [Compound 150, 4-(4-Oxazolyl)benz(3-methoxybenzylidene)hydrazide] | 4.5%
COCc1cccc(/C=N/NC(=O)c2cc3cc(O)ccc3o2)c1 [Compound 176, 5-Hydroxybenzofuran-2-carboxyl(3-methoxymethylbenzylidene)hydrazide] | 19%
COc1ccc(/C=N/NC(=O)c2ccc(OCc3ccc(Cl)cc3)cc2)cc1OC [Compound 137, 4-(4-Chlorobenzyloxy)benz(3,4-dimethoxybenzylidene)hydrazide] | 12%
O=C(N/N=C/c1ccccc1O)c1ccc(N2CCCC2=O)cc1 [Compound 123, 4-(2-Oxopyrrolidino-1-)benz(2-hydroxybenzylidene)hydrazide] | 5.1%
COc1cc(/C=N/NC(=O)c2ccc(-c3ccccc3)cc2)ccc1O [Compound 144, 4-Phenylbenz(4-hydroxy-3-methoxybenzylidene)hydrazide] | 15%
COc1ccc(/C=N/NC(=O)c2ccc(N3CCCC3=O)cc2)cc1 [Compound 131, 4-(2-Oxopyrrolidino-1-)benz(4-methoxybenzylidene)hydrazide] | 15%
COc1cccc(/C=N/NC(=O)c2ccc(NCCO)cc2)c1 [Compound 199, 4-(2-Hydroxyethylamino)benz(3-methoxybenzylidene)hydrazide] | 3.0%
COc1ccc(/C=N/NC(=O)c2ccc(OCc3ccc(C)cc3)cc2)cc1OC [Compound 138, 4-(4-Methylbenzyloxy)benz(3,4-dimethoxybenzylidene)hydrazide] | 18%
Cc1cccc(C(=O)N/N=C/c2ccccc2O)c1 [Compound 124, 3-Methylbenz(2-hydroxybenzylidene)hydrazide] | 3.4%
O=C(N/N=C/c1ccc2ccccc2c1)c1ccc(O)cc1 [Compound 126, 4-Hydroxybenz(2-naphthylidene)hydrazide] | 3.4%
COc1cccc(/C=N/NC(=O)c2ccc(-n3cccc3)cc2)c1 [Compound 135, 4-(1-Pyrrolyl)benz(3-methoxybenzylidene)hydrazide] | 12%
COc1ccc(O)c(/C=N/NC(=O)c2ccc(-c3ccccc3)cc2)c1 [Compound 151, 4-Phenylbenz(2-hydroxy-5-methoxybenzylidene)hydrazide] | 6.3%
COc1cccc(/C=N/NC(=O)c2ccc(OCc3ccc(F)cc3)cc2)c1 [Compound 143, 4-(4-Fluorobenzyloxy)benz(3-methoxybenzylidene)hydrazide] | 14%
COc1cc(/C=N/NC(=O)c2ccc(-c3ccccc3)cc2)ccc1F [Compound 159, 4-Phenylbenz(4-fluoro-3-methoxybenzylidene)hydrazide] | 8.9%
O=C(N/N=C/c1ccc2ccccc2c1)c1ccc(-c2ccccc2)cc1 [Compound 125, 4-Phenylbenz(2-naphthylidene)hydrazide] | 15%
COc1cccc(/C=N/NC(=O)c2ccc(OCc3ccc(Br)cc3)cc2)c1 [Compound 142, 4-(4-Bromobenzyloxy)benz(3-methoxybenzylidene)hydrazide] | 6.0%
COc1cc(/C=N/NC(=O)c2ccc(OCc3ccc(C)cc3)cc2)cc(OC)c1OC [Compound 136, 4-(4-Methylbenzyloxy)benz(3,4,5-trimethoxybenzylidene)hydrazide] | 4.8%
COc1cc(/C=N/NC(=O)c2ccc(-c3ccccc3)cc2)cc(OC)c1 [Compound 160, 4-Phenylbenz(3,5-dimethoxybenzylidene)hydrazide] | 6.1%

SMILES | Activity (%)
CN(C)c1ccc(C(=O)N/N=C/c2ccc3c(Cl)c[nH]c3c2)cc1 [Compound 180, 4-Dimethylaminobenz(3-chloro-6-indolidene)hydrazide] | 3.2%
COc1cccc(/C=N/NC(=O)c2ccc(OCc3ccc4ccccc4c3)cc2)c1 [Compound 157, 4-(2-Naphthylmethoxy)benz(3-methoxybenzylidene)hydrazide] | 9.9%
CN(C)c1ccc(C(=O)N/N=C/c2cccc(COCc3ccccc3)c2)cc1 [Compound 184, 4-Dimethylaminobenz(3-benzyloxymethylbenzylidene)hydrazide] | 21%
CN(C)c1ccc(C(=O)N/N=C/c2cccc(/C=C/c3ccccc3)c2)cc1 [Compound 170, 4-Dimethylaminobenz(3-(2E-phenylethenyl)benzylidene)hydrazide] | 4.7%
COc1cccc(/C=N/NC(=O)c2ccc(OCc3cccc(OC)c3)cc2)c1 [Compound 155, 4-(3-Methoxybenzyloxy)benz(3-methoxybenzylidene)hydrazide] | 11%
CCCCCCCCCCCCCCCCCC(=O)N/N=C/c1cc(OC)ccc1O [Compound 148, Octadecano(2-hydroxy-5-methoxybenzylidene)hydrazide] | 7.1%
CN(C)c1ccc(C(=O)N/N=C/c2cccc(N(C)C)c2)cc1 [Compound 177, 4-Dimethylaminobenz(3-dimethylaminobenzylidene)hydrazide] | 9.1%
O=C(/C=C/c1ccc(-c2ccccc2)cc1)N/N=C/c1ccc(OCCO)cc1 [Compound 198, 2E-(4-Phenylphenyl)acryl(4-(2-hydroxyethoxy)benzylidene)hydrazide] | 4.6%
COc1ccc(COc2ccc(C(=O)N/N=C/c3cccc(OC)c3)cc2)cc1 [Compound 152, 4-(4-Methoxybenzyloxy)benz(3-methoxybenzylidene)hydrazide] | 6.9%
CC1=NN(c2ccc3ccccc3n2)C(=O)/C1=N\Nc1ccc(O)cc1 [Compound 108, 4-(4-Hydroxyphenyl)hydrazono-1-(2-quinolino)-3-methyl-5-pyrazolone] | 2.4%
COc1ccc(O)c(/C=N/NC(=O)COc2ccc3[nH]ccc3c2)c1 [Compound 173, 5-Indolyloxoacet(2-hydroxy-5-methoxybenzylidene)hydrazide] | 12%
COc1cccc(/C=N/NC(=O)c2ccc(OCc3cccc(Cl)c3)cc2)c1 [Compound 153, 4-(3-Chlorobenzyloxy)benz(3-methoxybenzylidene)hydrazide] | 5.3%
COc1ccc(O)c(/C=N/NC(=O)c2cc3cc(O)ccc3[nH]2)c1 [Compound 175, 5-Hydroxyindole-2-carboxyl(2-hydroxy-5-methoxybenzylidene)hydrazide] | 4.3%
CCNC(=O)/C=C/c1cccc(/C=N/NC(=O)c2ccc(N(C)C)cc2)c1 [Compound 179, 4-Dimethylaminobenz(2E-ethylaminocarboxyethenylbenzylidene)hydrazide] | 4.3%
COc1ccc(/C=N/NC(=O)c2ccc(N3CCCC3=O)cc2)cc1OC [Compound 132, 4-(2-Oxopyrrolidino-1-)benz(3,4-dimethoxybenzylidene)hydrazide] | 8.7%
C=Cc1cccc(/C=N/NC(=O)c2ccc(-c3ccccc3)cc2)c1 [Compound 164, 4-Phenylbenz(3-vinylbenzylidene)hydrazide] | 11%
CN(C)c1ccc(C(=O)N/N=C/c2cccc(/C=C/c3ccc(Cl)cc3)c2)cc1 [Compound 186, 4-Dimethylaminobenz(2E-(4-chlorophenyl)ethenylbenzylidene)hydrazide] | 9.6%
COc1cccc(/C=N/NC(=O)c2ccc(OCc3ccc(C(F)(F)F)cc3)cc2)c1 [Compound 154, 4-(4-Trifluoromethylbenzyloxy)benz(3-methoxybenzylidene)hydrazide] | 6.7%
C=Cc1cccc(/C=N/NC(=O)c2ccc(N(C)C)cc2)c1 [Compound 167, 4-Dimethylaminobenz(3-vinylbenzylidene)hydrazide] | 11%
COc1cccc(/C=N/NC(=O)c2ccc(OCc3ccc(Cl)cc3)cc2)c1 [Compound 133, 4-(4-Chlorobenzyloxy)benz(3-methoxybenzylidene)hydrazide] | 14%
Cc1ccc(COCc2cccc(/C=N/NC(=O)c3ccc(N(C)C)cc3)c2)cc1 [Compound 189, 4-Dimethylaminobenz(3-(4-methylbenzyloxy)methylbenzylidene)hydrazide] | 9.1%
COc1cccc(/C=N/NC(=O)c2ccc(-c3ccccc3)cc2)c1 [Compound 140, 4-Phenylbenz(3-methoxybenzylidene)hydrazide] | 14%
COc1cc(/C=N/NC(=O)c2ccc(N3CCCC3=O)cc2)ccc1O [Compound 130, 4-(2-Oxopyrrolidino-1-)benz(4-hydroxy-3-methoxybenzylidene)hydrazide] | 20%
